According to patent publication US9643930B2, “Substituted indazole derivatives as in vitro MAO-B inhibitors” (“NTZ LAB” LTD., priority 2013, dated 2017):
Read-outs that look alike come from different tables or passages of the source.

Legend:
human MAO-A = biological target: T1, human MAO-A (Homo sapiens, UniProt P21397); test: Human MAO-A assay (recombinant enzyme, Amplex Red fluorescence); details: for inhibition at 10 µM: read-out: human MAO-A % inhibition at 10 μM
T1 sequence (P21397 1-527): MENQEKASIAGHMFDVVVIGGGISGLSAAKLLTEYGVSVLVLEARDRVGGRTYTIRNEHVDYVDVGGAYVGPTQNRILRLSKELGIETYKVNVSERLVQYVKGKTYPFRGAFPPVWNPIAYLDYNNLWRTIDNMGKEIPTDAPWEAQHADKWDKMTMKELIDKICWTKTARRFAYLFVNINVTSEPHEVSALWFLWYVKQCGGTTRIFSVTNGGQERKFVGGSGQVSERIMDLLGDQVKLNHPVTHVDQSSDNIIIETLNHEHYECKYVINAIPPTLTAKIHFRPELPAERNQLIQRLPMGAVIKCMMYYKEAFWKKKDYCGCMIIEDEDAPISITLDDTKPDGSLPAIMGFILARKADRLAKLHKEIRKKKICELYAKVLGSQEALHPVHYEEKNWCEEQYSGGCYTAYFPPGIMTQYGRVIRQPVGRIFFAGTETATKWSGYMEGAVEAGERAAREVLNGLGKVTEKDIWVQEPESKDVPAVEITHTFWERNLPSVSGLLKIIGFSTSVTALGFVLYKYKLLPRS

rat MAO-A = biological target: T2, rat MAO-A (Rattus norvegicus, UniProt P21396); test: Rat MAO-A assay (Amplex Red fluorescence, rat liver mitochondria pre-treated with deprenyl); format: biochemical; details: for inhibition at 10 µM: read-out: rat MAO-A (rat liver mitochondria) % inhibition at 10 μM
T2 construct: from tissue; host or cells: rat liver mitochondria (male Sprague-Dawley rats)
T2 sequence (P21396 1-526): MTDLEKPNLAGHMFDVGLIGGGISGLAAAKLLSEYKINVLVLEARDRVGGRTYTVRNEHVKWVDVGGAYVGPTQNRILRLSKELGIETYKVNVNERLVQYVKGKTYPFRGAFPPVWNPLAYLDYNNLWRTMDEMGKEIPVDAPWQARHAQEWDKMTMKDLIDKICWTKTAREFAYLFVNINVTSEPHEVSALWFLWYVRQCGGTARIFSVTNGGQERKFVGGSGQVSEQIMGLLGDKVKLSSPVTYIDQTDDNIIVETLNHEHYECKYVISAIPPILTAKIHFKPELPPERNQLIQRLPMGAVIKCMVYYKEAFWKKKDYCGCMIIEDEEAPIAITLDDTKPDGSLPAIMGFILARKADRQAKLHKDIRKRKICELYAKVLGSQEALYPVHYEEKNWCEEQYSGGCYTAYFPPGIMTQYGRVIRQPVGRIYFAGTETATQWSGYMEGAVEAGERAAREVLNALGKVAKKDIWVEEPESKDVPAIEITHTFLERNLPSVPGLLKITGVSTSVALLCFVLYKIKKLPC
Method: (§1) Male Sprague-Dawley (Harlan Sprague Dawley, Dublin, Va., US) rats (250-300 g) were sacrificed under light anesthesia and their livers were dissected. […] After homogenization, the volume is adjusted to 100 mL with the same buffer. After a low speed centrifugation (10 min at 600 g; 4° C.), the supernatant is further centrifuged at 15,000 rpm for 5 min at +4° C. The resulting pellet was resuspended in 2.0 mL of a 50 mM sodium/phosphate buffer (pH 7.4) and stored at −80° C. in aliquots of 1.0 mL each until further use.
(§2) The Amplex® Red reagent was prepared as recommended in the kit from Invitrogen (A12214). […] Clorgyline (1.0 μM) from Sigma Aldrich (M3778) was used to determine non-MAO-A enzyme activity and concentration-response curves of clorgyline serve as positive control.

rat MAO-B = biological target: T3, rat MAO-B (Rattus norvegicus, UniProt P19643); test: Rat MAO-B assay (Amplex Red fluorescence, rat liver mitochondria pre-treated with clorgyline 30 nM); format: biochemical
T3 construct: from tissue; host or cells: rat liver mitochondria (male Sprague-Dawley rats)
T3 sequence (P19643 1-520): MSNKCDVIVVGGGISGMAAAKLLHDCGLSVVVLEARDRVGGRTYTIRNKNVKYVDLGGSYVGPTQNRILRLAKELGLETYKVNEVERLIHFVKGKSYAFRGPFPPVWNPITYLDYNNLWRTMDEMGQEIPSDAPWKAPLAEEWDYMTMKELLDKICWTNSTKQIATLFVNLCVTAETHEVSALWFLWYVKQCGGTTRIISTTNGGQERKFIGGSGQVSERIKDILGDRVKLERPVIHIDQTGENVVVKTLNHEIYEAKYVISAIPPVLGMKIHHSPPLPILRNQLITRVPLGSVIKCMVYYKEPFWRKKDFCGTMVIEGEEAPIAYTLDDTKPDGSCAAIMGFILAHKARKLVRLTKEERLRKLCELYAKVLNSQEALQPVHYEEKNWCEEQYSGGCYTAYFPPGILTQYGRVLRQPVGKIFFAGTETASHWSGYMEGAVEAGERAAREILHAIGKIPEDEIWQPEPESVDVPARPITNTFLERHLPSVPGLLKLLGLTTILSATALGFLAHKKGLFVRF
Method: as §1, §2

human MAO-B = biological target: T4, human MAO-B (Homo sapiens, UniProt P27338); test: Human MAO-B assay (recombinant enzyme, Amplex Red fluorescence); format: biochemical; design: purchased Sigma-Aldrich M7441; host or cells: baculovirus-infected insect cells (microsomal product); details: p-tyramine 150 μM
T4 sequence (P27338 1-520): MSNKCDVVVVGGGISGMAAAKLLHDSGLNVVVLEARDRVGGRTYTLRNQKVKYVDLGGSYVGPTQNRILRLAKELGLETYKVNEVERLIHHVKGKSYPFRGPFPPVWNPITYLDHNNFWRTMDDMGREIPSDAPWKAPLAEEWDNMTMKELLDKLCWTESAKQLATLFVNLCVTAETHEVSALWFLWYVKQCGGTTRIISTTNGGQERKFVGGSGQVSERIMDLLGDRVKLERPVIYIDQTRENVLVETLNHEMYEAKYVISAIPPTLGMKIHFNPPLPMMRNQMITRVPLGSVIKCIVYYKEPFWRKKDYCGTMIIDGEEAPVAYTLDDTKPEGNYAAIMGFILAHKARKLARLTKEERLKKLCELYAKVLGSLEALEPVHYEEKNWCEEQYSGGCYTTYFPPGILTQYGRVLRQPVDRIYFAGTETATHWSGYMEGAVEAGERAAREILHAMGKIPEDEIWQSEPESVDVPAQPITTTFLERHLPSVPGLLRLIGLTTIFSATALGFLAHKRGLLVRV

[1] = at 10 μM, rat liver mitochondria
[2] = rat liver mitochondria pre-treated with clorgyline 30 nM, read-out: rat MAO-B (rat liver mitochondria) IC50
[3] = rat liver mitochondria, substrate p-tyramine, read-out: rat MAO-A (rat liver mitochondria) IC50
[4] = read-out: human MAO-A IC50, recombinant human enzyme, p-tyramine 150 μM

Row | SMILES | melting point | IC50 (human MAO-A) | inhibition at 10 µM (human MAO-A) | inhibition at 10 µM (rat MAO-A; [1]) | IC50 (rat MAO-B; [2]) | inhibition at 10 µM (rat MAO-A) | IC50 (human MAO-B) | IC50 (rat MAO-A; [3]) | IC50 (rat MAO-B) | IC50 (rat MAO-A) | IC50 (human MAO-A; [4])
1 | O=C(Nc1cc(Cl)cc(Cl)c1)c1ccc2[nH]ncc2c1 [Example 8, N-(3,5-dichlorophenyl)-1H-indazole-5-carboxamide] | 302.7 to 304.8 °C | < 10000 nM | 65% | 5% |  |  |  |  |  |  | 
2 | Cn1ncc2cc(C(=O)Nc3ccc(F)c(Cl)c3)ccc21 [Example 17, N-(3-chloro-4-fluorophenyl)-1-methyl-1H-indazole-5-carboxamide] |  |  |  |  | 1.36 ± 0.13 nM | 29% |  |  |  |  | 
3 | Cn1cc2cc(C(=O)Nc3ccc(Cl)c(Cl)c3)ccc2n1 [Example 14, N-(3,4-dichlorophenyl)-2-methyl-2H-indazole-5-carboxamide] |  |  |  |  | 22.5 ± 0.6 nM |  | 1.44 ± 0.41 nM |  |  |  | 
4 | O=C(Nc1ccc(F)c(F)c1)c1ccc2[nH]ncc2c1 [Example 11, N-(3,4-difluorophenyl)-1H-indazole-5-carboxamide] |  | > 10000 nM | 36% | 13% | 8.89 ± 0.05 nM |  | 1.59 ± 0.16 nM | > 10000 nM |  |  | 
5 | Cn1ncc2cc(/C=N/c3ccc(Cl)c(Cl)c3)ccc21 [Example 26, (E)-3,4-dichloro-N-((1-methyl-1H-indazole-5-yl)methylene)aniline] |  |  | 57% | 23% |  |  |  |  |  |  | 
6 | Clc1cc(/N=C/c2ccc3[nH]ncc3c2)cnc1Cl [Example 25, (E)-N-((1H-indazol-5-yl)methylene)-5,6-dichloropyridin-3-amine] |  | < 10000 nM | 67% | 45% |  |  | 0.474 ± 0.02 nM |  | 1.48 ± 0.07 nM | > 10000 nM | 
7 | COCCn1ncc2cc(C(=O)Nc3ccc(Cl)c(Cl)c3)ccc21 [Example 21, N-(3,4-dichlorophenyl)-1-(2-methoxyethyl)-1H-indazole-5-carboxamide] |  |  | 81% | 57% |  |  |  | < 10000 nM |  |  | 
8 | COc1cc(NC(=O)c2ccc3[nH]ncc3c2)ccc1Cl [Example 4, N-(4-chloro-3-methoxy)-1H-indazole-5-carboxamide] | 279.6 to 281.6 °C |  | 62% | 24% | 43.1 ± 4.2 nM |  | 4.36 ± 0.08 nM | > 10000 nM |  |  | 8790 ± 200 nM
9 | Cn1cc2cc(C(=O)Nc3ccc(F)c(Cl)c3)ccc2n1 [Example 18, N-(3-chloro-4-fluorophenyl)-2-methyl-2H-indazole-5-carboxamide] |  |  | 95% | 90% | 20.3 ± 3 nM |  | 8.08 ± 1.05 nM | 1690 ± 143 nM |  |  | 562 ± 62 nM
10 | Cn1cc2cc(C(=O)Nc3ccc(F)c(F)c3)ccc2n1 [Example 20, N-(3,4-difluorophenyl)-2-methyl-2H-indazole-5-carboxamide] |  |  |  | 83% | 221 ± 21 nM |  | 38.4 ± 1.8 nM | 1880 ± 93 nM |  |  | 764 ± 40 nM
11 | O=C(Nc1ccc(Cl)c(O)c1)c1ccc2[nH]ncc2c1 [Example 6, N-(4-chloro-3-hydroxyphenyl)-1H-indazole-5-carboxamide] | 306.6 to 307.3 °C |  | 81% | 43% | 385 ± 9 nM |  | 37.5 ± 7.3 nM | > 10000 nM |  |  | 3000 ± 122 nM
12 | Clc1ccc(/N=C/c2ccc3[nH]ncc3c2)cc1Cl [Example 22, (E)-N-((1H-indazol-5-yl)methylene)-3,4-dichloroaniline] |  |  | 62% | 43% |  |  |  |  |  |  | 
13 | Cn1ncc2cc(C(=O)Nc3ccc(F)c(F)c3)ccc21 [Example 19, N-(3,4-difluorophenyl)-1-methyl-1H-indazole-5-carboxamide] |  | > 10000 nM | 46% | 18% | 5.65 ± 0.48 nM |  | 1.52 ± 0.18 nM | > 10000 nM |  |  | 
14 | COc1ccc(NC(=O)c2ccc3[nH]ncc3c2)cc1OC [Example 7, N-(3,4-dimethoxyphenyl)-1H-indazole-5-carboxamide] | 258.3 to 261.3 °C | > 10000 nM | 9% | 9% | 1400 ± 56 nM |  | 185 ± 21 nM | > 10000 nM |  |  | 
15 | O=C(Nc1ccc(Cl)c(Cl)c1)c1ccc2[nH]ccc2c1 [Example 2, N-(3,4-dichlorophenyl)-1H-indole-5-carboxamide] | 233.8 to 234.8 °C |  | 88% | 70% |  |  |  |  |  |  | 
16 | Fc1ccc(/N=C/c2ccc3[nH]ncc3c2)cc1Cl [Example 24, (E)-N-((1H-indazol-5-yl)methylene)-3-chloro-4-fluoroaniline] |  | < 10000 nM | 54% | 35% |  |  | 2.1 ± 0.3 nM |  | 6.08 ± 0.52 nM | > 10000 nM | 
17 | O=C(Nc1cnc(Cl)c(Cl)c1)c1ccc2[nH]ncc2c1 [Example 12, N-(5,6-dichloropyridin-3-yl)-1H-indazole-5-carboxamide] |  | < 10000 nM | 52% | 59% | 26.6 ± 1.5 nM |  | 5.42 ± 0.2 nM | < 10000 nM |  |  | 
18 | Cn1ccc2cc(C(=O)Nc3ccc(Cl)c(Cl)c3)ccc21 [Example 16, N-(3,4-dichlorophenyl)-1-methyl-1H-indole-5-carboxamide] | 178.9 to 180.3 °C |  | 13% | 3% |  |  |  |  |  |  | 
19 | O=C(Nc1ccc(Cl)c(Cl)c1)c1ccc2[nH]ncc2c1 [Example 1] |  |  | 46% | 42% |  |  |  |  |  |  | 
20 | Fc1cc(/N=C/c2ccc3[nH]ncc3c2)ccc1Cl [Example 23, (E)-N-((1H-indazol-5-yl)methylene)-4-chloro-3-fluoroaniline] |  | > 10000 nM | 44% | 27% |  |  | 1.91 ± 0.27 nM |  | 25.2 ± 0.11 nM | > 10000 nM | 
21 | O=C(Nc1ccc(F)c(Cl)c1)c1ccc2[nH]ncc2c1 [Example 9, N-(3-chloro-4-fluorophenyl)-1H-indazole-5-carboxamide] |  | > 10000 nM | 40% | 17% |  |  |  | > 10000 nM |  |  | 
22 | O=C(Nc1ccc(Cl)c(F)c1)c1ccc2[nH]ncc2c1 [Example 10, N-(4-chloro-3-fluorophenyl)-1H-indazole-5-carboxamide] |  | < 10000 nM | 55% | 30% | 2.61 ± 0.68 nM |  | 0.668 ± 0.053 nM | > 10000 nM |  |  | 
